Some test systems named below: A549 NSCLC; NCI-H226 lung; M14 melanoma; SK-MEL-2 melanoma; HCT-15 colon; NCI-H23 lung; HT29 colon; K-562 leukemia; IGROV1 ovarian; RPMI-8226 leukemia.
What all share (assay): NCI-60 cell line screen, 48 h

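Test compounds were applied to cells in 96-well plates for 48 hours at 5 doses. Abbreviation: GI50, concentration required for 50% inhibition of growth. TGI denotes the concentration required for complete inhibition of growth.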 Bounds are passed on as bounds.

For the molecule `CCCCC#Cc1c(I)n(C2OC(CO[Si](C)(C)C(C)(C)C)C3OC(C)(C)OC32)c(=O)n(C(=O)c2ccccc2)c1=O` (stereo not given), the GI50 in the test with A549 NSCLC is more than 100 µM; with NCI-H226 lung, 17.6 µM; in the test with M14 melanoma it was 1.6 µM; in the test with SK-MEL-2 melanoma, 2.09 µM; with HCT-15 colon, 1.63 µM; in the test with NCI-H23 lung, 9.44 µM. Also, the GI50 is 28.4 µM in the test on HT29 colon, 15 µM with K-562 leukemia, 3.96 µM in the test with IGROV1 ovarian and 3.64 µM with RPMI-8226 leukemia. The TGI with A549 NSCLC was more than 100 µM; with NCI-H226 lung, 37.6 µM; in the test with M14 melanoma it was 3.3 µM; in the test with SK-MEL-2 melanoma, 4.75 µM; in the test with HCT-15 colon it was more than 100 µM; in the test with NCI-H23 lung it was 27.3 µM. The TGI is more than 100 µM in the test on HT29 colon, 36.2 µM in the test with K-562 leukemia, 13.4 µM in the test with IGROV1 ovarian and 17.4 µM in the test with RPMI-8226 leukemia.

As to `Cc1cc(=O)[nH]c(N/N=C/c2ccccc2O)n1`, the GI50 in the test with A549 NSCLC is 4.4 µM; in the test on NCI-H226 lung it was 24.3 µM; in the test with M14 melanoma, 3.56 µM; with SK-MEL-2 melanoma, more than 100 µM; in the test on HCT-15 colon, 4.63 µM; in the test with NCI-H23 lung, 4.21 µM. Besides, the GI50 is 5.72 µM in the test with HT29 colon, 5.82 µM with K-562 leukemia, 3.77 µM in the test on IGROV1 ovarian and 5.61 µM with RPMI-8226 leukemia. Further, the TGI is more than 100 µM with A549 NSCLC; more than 100 µM in the test on NCI-H226 lung; 26.3 µM with M14 melanoma; more than 100 µM with SK-MEL-2 melanoma; more than 100 µM with HCT-15 colon; more than 100 µM with NCI-H23 lung. For the same molecule, the TGI in the test on HT29 colon, with K-562 leukemia, in the test on IGROV1 ovarian and in the test on RPMI-8226 leukemia was more than 100 µM in each case.

For the molecule `OCCCCC#Cc1ccccc1C#Cc1cccnc1`, the GI50 in the test with A549 NSCLC is 25.5 µM; in the test with NCI-H226 lung, 34.1 µM; in the test with M14 melanoma it was 23.4 µM; with SK-MEL-2 melanoma it was 87.9 µM; with HCT-15 colon it was 21.9 µM; with NCI-H23 lung, 28 µM. For the same molecule, the GI50 with HT29 colon is 22.3 µM; in the test on K-562 leukemia, 23.9 µM; with IGROV1 ovarian it was 20.3 µM; in the test with RPMI-8226 leukemia, 35.5 µM. Moreover, the TGI in the test on A549 NSCLC is 80.2 µM; in the test with NCI-H226 lung it was more than 100 µM; in the test with M14 melanoma, 75.4 µM; in the test with SK-MEL-2 melanoma, more than 100 µM; in the test on HCT-15 colon it was 74.1 µM; in the test on NCI-H23 lung, more than 100 µM. Besides, the TGI in the test with HT29 colon is 87.8 µM; in the test on K-562 leukemia, 71.1 µM; in the test with IGROV1 ovarian, 52 µM; in the test with RPMI-8226 leukemia, more than 100 µM.

For `Nc1c(C(=O)c2cccc(C(O)CO)c2)cnn1-c1ccc(F)cc1` (stereo not given), the GI50 in the test with A549 NSCLC, in the test with NCI-H226 lung, with M14 melanoma, in the test with SK-MEL-2 melanoma, in the test on HCT-15 colon and in the test with NCI-H23 lung was more than 25 µM each time. For the same molecule, the GI50 with HT29 colon, with K-562 leukemia, in the test with IGROV1 ovarian and in the test on RPMI-8226 leukemia was more than 25 µM each time. Besides, the TGI in the test with A549 NSCLC, in the test on NCI-H226 lung, in the test on M14 melanoma, in the test with SK-MEL-2 melanoma, with HCT-15 colon and in the test on NCI-H23 lung was more than 25 µM in each case. The TGI with HT29 colon, with K-562 leukemia, with IGROV1 ovarian and with RPMI-8226 leukemia was more than 25 µM in each case.

In the case of `C=C(C)[C@@H]1CCc2c(O)c(O)c(=O)cc(C)c2C1`, the TGI was more than 100 µM in the test on A549 NSCLC; more than 63 µM in the test with NCI-H226 lung; more than 100 µM in the test with M14 melanoma; more than 100 µM in the test on SK-MEL-2 melanoma; more than 100 µM in the test on HCT-15 colon; 48.9 µM in the test on NCI-H23 lung. The TGI in the test on HT29 colon is more than 100 µM; in the test with K-562 leukemia, more than 27.6 µM; with IGROV1 ovarian, more than 100 µM; in the test with RPMI-8226 leukemia, more than 100 µM.

With `Cc1nn(C)c2ncnc(N/N=C/c3cccc(O)c3O)c12`, the GI50 in the test on A549 NSCLC was 2.11 µM; in the test with NCI-H226 lung, 3.69 µM; with M14 melanoma, 0.259 µM; in the test on SK-MEL-2 melanoma, 2.98 µM; with HCT-15 colon, 0.225 µM; in the test on NCI-H23 lung, 0.774 µM. The GI50 was 3.94 µM in the test on HT29 colon, 0.387 µM with K-562 leukemia, 1.78 µM in the test with IGROV1 ovarian and 0.526 µM with RPMI-8226 leukemia. Moreover, the TGI in the test on A549 NSCLC is more than 100 µM; with NCI-H226 lung, more than 49.2 µM; with M14 melanoma, 1.72 µM; in the test on SK-MEL-2 melanoma, more than 76.3 µM; in the test on HCT-15 colon, more than 100 µM; with NCI-H23 lung, more than 68.2 µM. Also, the TGI in the test on HT29 colon is more than 100 µM; in the test with K-562 leukemia, more than 100 µM; with IGROV1 ovarian, more than 30.4 µM; in the test on RPMI-8226 leukemia it was more than 100 µM.

Turning to `O=C1NC(=O)C(=Cc2cn(Cc3ccccc3)c3ccccc23)C(=O)N1`, the GI50 in the test on A549 NSCLC was 13 µM; in the test with NCI-H226 lung, 0.951 µM; in the test on M14 melanoma, 17.9 µM; in the test with SK-MEL-2 melanoma, 6.41 µM; with HCT-15 colon, 14.3 µM; in the test on NCI-H23 lung, 14.1 µM. Moreover, the GI50 in the test on HT29 colon was 23.5 µM; in the test with K-562 leukemia, 4.23 µM; in the test with IGROV1 ovarian, 0.489 µM; in the test with RPMI-8226 leukemia it was 8.23 µM. Further, the TGI in the test with A549 NSCLC came to 30.7 µM; with NCI-H226 lung, 3.29 µM; with M14 melanoma, 44.4 µM; in the test on SK-MEL-2 melanoma, 28.3 µM; with HCT-15 colon, 38.2 µM; in the test with NCI-H23 lung, 34.2 µM. In addition, the TGI with HT29 colon is more than 60.8 µM; in the test with K-562 leukemia, more than 48.6 µM; in the test with IGROV1 ovarian, 10.5 µM; in the test with RPMI-8226 leukemia, more than 61.3 µM.

For `COC1=C(OC)C(=O)C(C/C=C(\C)CC/C=C(\C)CC/C=C(\C)CC/C=C(\C)CC/C=C(\C)CC/C=C(\C)CC/C=C(\C)CC/C=C(\C)CC/C=C(\C)CCC=C(C)C)=C(C)C1=O`, the GI50 with A549 NSCLC, in the test with NCI-H226 lung, with M14 melanoma, in the test with SK-MEL-2 melanoma, in the test with HCT-15 colon and in the test on NCI-H23 lung was more than 100 µM in each case. For the same molecule, the GI50 in the test with HT29 colon, in the test on K-562 leukemia, in the test on IGROV1 ovarian and with RPMI-8226 leukemia was more than 100 µM throughout. Moreover, the TGI in the test with A549 NSCLC, in the test with NCI-H226 lung, in the test on M14 melanoma, in the test with SK-MEL-2 melanoma, in the test on HCT-15 colon and in the test on NCI-H23 lung was more than 100 µM each time. The TGI in the test with HT29 colon, in the test with K-562 leukemia, with IGROV1 ovarian and in the test with RPMI-8226 leukemia was more than 100 µM in each case.

The record behind these values is PubChem BioAssay (NCI).
